Source: ChEMBL document CHEMBL5528076, “Development of Selective Pyrido[2,3-d]pyrimidin-7(8H)-one-Based Mammalian STE20-Like (MST3/4) Kinase Inhibitors” (J Med Chem, 2024)

Key:
[1] = target: T1, Serine/threonine-protein kinase 26 (Homo sapiens, UniProt Q9P289); test: Binding affinity to recombinant MST4 (unknown origin) assessed as change in melting temperature by DSF analysis
Target sequence in this assay (Q9P289 2-416 limits assumed): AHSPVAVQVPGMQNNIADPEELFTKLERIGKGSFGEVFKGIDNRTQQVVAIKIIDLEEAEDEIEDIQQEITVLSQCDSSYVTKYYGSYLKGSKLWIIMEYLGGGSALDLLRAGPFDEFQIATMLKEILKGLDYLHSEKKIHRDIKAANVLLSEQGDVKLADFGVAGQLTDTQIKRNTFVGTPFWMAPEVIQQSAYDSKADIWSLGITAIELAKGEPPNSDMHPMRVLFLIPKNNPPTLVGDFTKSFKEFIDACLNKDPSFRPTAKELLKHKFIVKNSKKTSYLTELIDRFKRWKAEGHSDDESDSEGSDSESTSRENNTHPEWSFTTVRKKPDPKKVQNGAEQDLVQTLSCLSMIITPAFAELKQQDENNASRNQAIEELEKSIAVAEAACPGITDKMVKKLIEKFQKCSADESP

[2] = target: T2, Serine/threonine-protein kinase 24 (Homo sapiens, UniProt Q9Y6E0); test: Binding affinity to recombinant MST3 (unknown origin) assessed as change in melting temperature by DSF analysis
Target sequence in this assay (Q9Y6E0 whole entry, looked up): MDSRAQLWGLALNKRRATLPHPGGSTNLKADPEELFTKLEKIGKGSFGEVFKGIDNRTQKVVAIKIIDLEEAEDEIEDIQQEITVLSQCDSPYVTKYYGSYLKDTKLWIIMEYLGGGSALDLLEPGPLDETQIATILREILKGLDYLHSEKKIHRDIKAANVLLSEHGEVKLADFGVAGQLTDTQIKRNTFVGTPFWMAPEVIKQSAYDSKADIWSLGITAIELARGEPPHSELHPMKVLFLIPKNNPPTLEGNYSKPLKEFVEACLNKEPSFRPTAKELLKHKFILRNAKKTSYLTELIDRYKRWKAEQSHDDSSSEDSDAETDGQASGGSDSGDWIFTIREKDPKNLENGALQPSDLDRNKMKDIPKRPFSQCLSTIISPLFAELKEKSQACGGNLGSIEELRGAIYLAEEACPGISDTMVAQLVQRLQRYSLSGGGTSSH

[3] = target: Serine/threonine-protein kinase PAK 1 (Homo sapiens) (UniProt Q13153); test: Binding affinity to recombinant PAK1 (unknown origin) assessed as change in melting temperature by DSF analysis
[4] = target: T3, Serine/threonine-protein kinase 3 (Homo sapiens) (UniProt Q13188); test: Binding affinity to recombinant MST2 (unknown origin) assessed as change in melting temperature by DSF analysis
T3 sequence (whole entry): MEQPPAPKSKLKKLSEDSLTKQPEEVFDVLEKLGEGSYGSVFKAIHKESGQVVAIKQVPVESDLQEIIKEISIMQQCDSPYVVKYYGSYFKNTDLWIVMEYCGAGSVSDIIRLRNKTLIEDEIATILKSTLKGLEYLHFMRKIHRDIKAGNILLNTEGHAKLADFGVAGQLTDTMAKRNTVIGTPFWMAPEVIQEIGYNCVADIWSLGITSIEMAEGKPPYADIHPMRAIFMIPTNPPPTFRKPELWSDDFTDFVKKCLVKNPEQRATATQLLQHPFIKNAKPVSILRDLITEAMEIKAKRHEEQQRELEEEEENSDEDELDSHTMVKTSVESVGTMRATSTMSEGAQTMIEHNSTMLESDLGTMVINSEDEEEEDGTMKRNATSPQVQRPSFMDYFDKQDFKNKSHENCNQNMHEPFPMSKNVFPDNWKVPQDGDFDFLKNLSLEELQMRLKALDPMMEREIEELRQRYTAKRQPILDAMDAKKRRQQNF

[5] = target: Serine/threonine-protein kinase SIK2 (Homo sapiens, UniProt Q9H0K1); test: Inhibition of SIK2 (unknown origin) expressed in HEK293T cells using NanoGlo as substrate incubated for 20 hrs by NanoBRET assay; assay type: cell-based
[6] = target: T4, Serine/threonine-protein kinase 4 (Homo sapiens) (UniProt Q13043); test: Binding affinity to recombinant MST1 (unknown origin) assessed as change in melting temperature by DSF analysis
T4 sequence (whole entry): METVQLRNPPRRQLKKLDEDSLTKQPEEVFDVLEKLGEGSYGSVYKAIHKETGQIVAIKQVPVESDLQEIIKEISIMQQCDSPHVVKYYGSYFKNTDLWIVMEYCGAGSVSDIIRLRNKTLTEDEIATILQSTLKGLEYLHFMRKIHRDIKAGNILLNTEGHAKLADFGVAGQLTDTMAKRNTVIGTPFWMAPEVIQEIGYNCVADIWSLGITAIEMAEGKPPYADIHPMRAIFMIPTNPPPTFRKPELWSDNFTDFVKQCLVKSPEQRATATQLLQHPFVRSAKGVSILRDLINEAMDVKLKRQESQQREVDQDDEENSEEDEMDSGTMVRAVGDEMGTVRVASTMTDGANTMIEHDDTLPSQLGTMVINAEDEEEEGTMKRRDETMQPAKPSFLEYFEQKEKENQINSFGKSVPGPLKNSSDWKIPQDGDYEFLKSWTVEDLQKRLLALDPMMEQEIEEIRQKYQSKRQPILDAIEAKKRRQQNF

[7] = target: T5, Serine/threonine-protein kinase 3 (Homo sapiens, UniProt Q13188); test: Inhibition of MST2 (unknown origin) expressed in HEK293T cells using NanoGlo as substrate incubated for 20 hrs by NanoBRET assay; assay type: cell-based
T5 sequence (Q13188 whole entry): T3 sequence (whole entry)

[8] = target: T2, Serine/threonine-protein kinase 24; test: Inhibition of MST3 (unknown origin) expressed in HEK293T cells using NanoGlo as substrate incubated for 20 hrs by NanoBRET assay; assay type: cell-based
Target sequence in this assay (Q9Y6E0 whole entry): as the sequence (Q9Y6E0 whole entry, looked up) above

[9] = target: T1, Serine/threonine-protein kinase 26; test: Inhibition of MST4 (unknown origin) expressed in HEK293T cells using NanoGlo as substrate incubated for 20 hrs by NanoBRET assay; assay type: cell-based
Target sequence in this assay (Q9P289 whole entry): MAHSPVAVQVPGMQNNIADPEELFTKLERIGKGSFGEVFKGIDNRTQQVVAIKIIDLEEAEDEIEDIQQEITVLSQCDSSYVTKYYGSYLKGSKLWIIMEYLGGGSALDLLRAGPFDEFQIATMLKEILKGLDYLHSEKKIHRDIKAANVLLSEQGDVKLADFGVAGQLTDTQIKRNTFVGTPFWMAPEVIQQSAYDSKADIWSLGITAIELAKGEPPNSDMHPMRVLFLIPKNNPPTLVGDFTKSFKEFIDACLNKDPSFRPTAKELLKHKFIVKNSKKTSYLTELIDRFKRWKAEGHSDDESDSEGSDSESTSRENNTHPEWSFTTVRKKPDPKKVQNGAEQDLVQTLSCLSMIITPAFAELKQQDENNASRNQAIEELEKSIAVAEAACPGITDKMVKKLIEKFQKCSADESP

[10] = target: T6, Serine/threonine-protein kinase 4 (Homo sapiens, UniProt Q13043); test: Inhibition of MST1 (unknown origin) expressed in HEK293T cells using NanoGlo as substrate incubated for 20 hrs by NanoBRET assay; assay type: cell-based
T6 sequence (Q13043 whole entry): T4 sequence (whole entry)

[11] = target: T2, Serine/threonine-protein kinase 24; test: Inhibition of MST3 (unknown origin) expressed in lysed HEK293T cells using NanoGlo as substrate incubated for 20 hrs by NanoBRET assay; assay type: cell-based
Target sequence in this assay (Q9Y6E0 whole entry): as the sequence (Q9Y6E0 whole entry, looked up) above

Chain of Serine/threonine-protein kinase PAK 1 (Homo sapiens) (Q13153 whole entry): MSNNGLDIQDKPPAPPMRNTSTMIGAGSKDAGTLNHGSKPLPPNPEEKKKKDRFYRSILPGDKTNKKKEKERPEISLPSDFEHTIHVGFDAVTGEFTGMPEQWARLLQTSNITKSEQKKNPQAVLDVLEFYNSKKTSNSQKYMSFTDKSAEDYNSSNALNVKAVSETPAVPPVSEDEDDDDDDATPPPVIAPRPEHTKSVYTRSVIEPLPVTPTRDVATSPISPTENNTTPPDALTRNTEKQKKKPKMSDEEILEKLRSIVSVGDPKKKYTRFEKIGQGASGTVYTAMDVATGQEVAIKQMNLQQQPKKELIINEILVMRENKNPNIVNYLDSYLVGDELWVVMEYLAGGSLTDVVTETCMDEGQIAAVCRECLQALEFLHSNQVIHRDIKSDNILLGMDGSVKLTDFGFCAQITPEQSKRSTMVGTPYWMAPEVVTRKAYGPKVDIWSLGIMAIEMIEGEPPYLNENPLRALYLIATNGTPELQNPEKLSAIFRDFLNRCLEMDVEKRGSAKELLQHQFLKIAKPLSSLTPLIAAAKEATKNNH
Chain of Serine/threonine-protein kinase SIK2 (Q9H0K1 whole entry): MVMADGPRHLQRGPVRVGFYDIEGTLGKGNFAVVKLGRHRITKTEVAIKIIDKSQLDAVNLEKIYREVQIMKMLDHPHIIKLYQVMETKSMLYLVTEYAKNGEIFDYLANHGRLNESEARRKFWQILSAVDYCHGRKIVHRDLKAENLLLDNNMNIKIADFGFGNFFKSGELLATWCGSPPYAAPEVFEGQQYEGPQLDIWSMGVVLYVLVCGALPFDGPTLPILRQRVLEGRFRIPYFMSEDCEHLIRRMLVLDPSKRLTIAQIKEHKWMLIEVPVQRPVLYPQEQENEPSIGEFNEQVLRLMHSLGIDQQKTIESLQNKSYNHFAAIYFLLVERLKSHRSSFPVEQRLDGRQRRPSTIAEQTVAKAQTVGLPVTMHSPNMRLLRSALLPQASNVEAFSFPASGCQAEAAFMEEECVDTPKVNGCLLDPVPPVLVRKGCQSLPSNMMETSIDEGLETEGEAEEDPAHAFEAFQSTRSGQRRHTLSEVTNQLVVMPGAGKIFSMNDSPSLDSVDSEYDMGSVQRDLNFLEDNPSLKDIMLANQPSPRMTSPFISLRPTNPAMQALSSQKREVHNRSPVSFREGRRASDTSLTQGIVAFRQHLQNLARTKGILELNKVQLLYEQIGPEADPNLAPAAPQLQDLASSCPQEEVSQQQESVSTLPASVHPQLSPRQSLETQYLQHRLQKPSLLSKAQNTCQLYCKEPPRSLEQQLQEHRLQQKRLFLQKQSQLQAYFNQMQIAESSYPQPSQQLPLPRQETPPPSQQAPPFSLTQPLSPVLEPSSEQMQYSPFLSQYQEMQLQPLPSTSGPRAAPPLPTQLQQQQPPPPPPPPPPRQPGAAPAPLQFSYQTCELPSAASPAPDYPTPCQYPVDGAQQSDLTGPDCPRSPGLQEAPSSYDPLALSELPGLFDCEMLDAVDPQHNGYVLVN

SMILES | ΔTm [1] [°C] | ΔTm [2] [°C] | ΔTm [3] [°C] | ΔTm [4] [°C] | EC50 [5] [nM] | ΔTm [6] [°C] | EC50 [7] [nM] | EC50 [8] [nM] | EC50 [9] [nM] | EC50 [10] [nM] | EC50 [11] [nM]
CNc1ncc2cc(-c3ccc(-c4cccc(C)n4)cc3Cl)c(=O)[nH]c2n1 | 0 | 0.6 | 0 | 0.3 | 1600 | 0 | – | – | – | – | –
CNc1ncc2cc(-c3ccc(-c4cccc(C)n4)cc3Cl)c(=O)n(CCCCCO)c2n1 | 5.5 | 6.6 | 6 | 6.1 | 266 | 2.4 | 2800 | 316 | 2200 | 3000 | –
COc1ccc(O)c(Nc2ncc3cc(-c4ccc(-c5cccc(C)n5)cc4Cl)c(=O)n(CCCCN)c3n2)c1 | 8.3 | 11 | 4.5 | 5.4 | 543 | 3.8 | 3100 | – | 793 | 3300 | 163
Cc1cccc(-c2ccc(-c3cc4cnc(NCCCc5ccc(N)cc5)nc4n(CCCCN)c3=O)c(Cl)c2)n1 | 9.7 | 12.2 | 6.8 | 7.2 | 516 | 4.9 | 3600 | – | 681 | 3400 | 57
Cc1cccc(-c2ccc(-c3cc4cnc(Nc5ccc(C)c(O)c5)nc4n(CCCCN)c3=O)c(Cl)c2)n1 | 15.9 | 17.5 | 9.1 | 13.2 | 37 | 8.1 | 537 | – | 60 | 530 | 34
COc1cc(N2CCOCC2)ccc1Nc1ncc2cc(-c3ccc(-c4cccc(C)n4)cc3Cl)c(=O)n(CCCCN)c2n1 | 9.2 | 11 | 5 | 7.5 | 85 | 4.6 | 3100 | – | 1200 | 2100 | 115
Cc1cccc(-c2ccc(-c3cc4cnc(NCCCN5CCNCC5)nc4n(CCCCN)c3=O)c(Cl)c2)n1 | 8.9 | 13 | 5 | 15.8 | 5900 | 3.1 | > 50000 | – | 2800 | > 50000 | 33
CNc1ncc2cc(-c3ccc(-c4cccc(C)n4)cc3Cl)c(=O)n(CCC3CCNCC3)c2n1 | 7.8 | – | 8.6 | 8 | 78 | 6 | 1800 | 60 | 800 | 1600 | –
CNc1ncc2cc(-c3ccc(-c4cccc(C)n4)cc3Cl)c(=O)n(CCN)c2n1 | 3.3 | 5.5 | 1.3 | 1.6 | 1400 | 1.6 | 13700 | 1200 | 14800 | > 50000 | –
CNc1ncc2cc(-c3ccc(-c4cccc(C)n4)cc3Cl)c(=O)n(CCO)c2n1 | 5.8 | – | 5 | 9 | 871 | 4 | 4400 | 288 | 3600 | 7700 | –
CNc1ncc2cc(-c3ccc(-c4cccc(C)n4)cc3Cl)c(=O)n(CCCN)c2n1 | 7.2 | 7.9 | 4 | 4.4 | 162 | 2.8 | 19800 | 251 | 4300 | 26300 | –
CNc1ncc2cc(-c3ccc(-c4cccc(C)n4)cc3Cl)c(=O)n(C[C@H]3OC[C@H](N)CO3)c2n1 | – | – | – | – | – | – | 4600 | – | – | 30400 | –
CNc1ncc2cc(-c3ccc(-c4cccc(C)n4)cc3Cl)c(=O)n(C[C@H]3CC[C@H](N)CC3)c2n1 | 8.2 | 10.8 | 8.4 | 10.8 | 16 | 7.9 | 552 | 48 | 500 | 660 | –
CNc1ncc2cc(-c3ccc(-c4cccc(C)n4)cc3Cl)c(=O)n(CCCCOC)c2n1 | 3.6 | 6.2 | 4.8 | 8.6 | 1300 | 3.3 | 4600 | 614 | 5500 | 5300 | –
Cc1cccc(-c2ccc(-c3cc4cnc(Nc5ccc(F)c(CO)c5)nc4n(CCCCN)c3=O)c(Cl)c2)n1 | 14.8 | 16.9 | 9.3 | 16 | 51 | 8.6 | 184 | – | 44 | 314 | 10
COc1cc(N2CCN(C)CC2)ccc1Nc1ncc2cc(-c3ccc(-c4cccc(C)n4)cc3Cl)c(=O)n(CCCCN)c2n1 | 6.7 | 13.5 | 8.8 | 7.4 | 153 | 4 | 16900 | – | 38300 | > 50000 | 278
Cc1cccc(-c2ccc(-c3cc4cnc(Nc5cc(C(F)(F)F)ccc5C)nc4n(CCCCN)c3=O)c(Cl)c2)n1 | 9.5 | 13 | 5.9 | 10.2 | 5500 | 5.8 | 5500 | – | 2200 | 5700 | 367
CNc1ncc2cc(-c3ccc(-c4cccc(C)n4)cc3Cl)c(=O)n(CCCCCN)c2n1 | 7.1 | 9.2 | 6.3 | 10.7 | 61 | 5.2 | 2500 | 92 | 2100 | 2500 | –
CNc1ncc2cc(-c3ccc(-c4cccc(C)n4)cc3Cl)c(=O)n(CCOC)c2n1 | 4.4 | 6.7 | 4.1 | 5 | 2500 | 3.9 | 28500 | 420 | 13000 | 31400 | –
CNc1ncc2cc(-c3ccc(-c4cccc(C)n4)cc3Cl)c(=O)n(CCCOC)c2n1 | 4.1 | 5.1 | 5.1 | 6.2 | 1700 | 3.6 | 9300 | 594 | 7600 | 9200 | –
CNc1ncc2cc(-c3ccc(-c4cccc(C)n4)cc3Cl)c(=O)n(CCCCO)c2n1 | 5 | 5.7 | 5 | 7.1 | 138 | 3.8 | 3600 | 244 | 4000 | 3400 | –
CNc1ncc2cc(-c3ccc(-c4cccc(C)n4)cc3Cl)c(=O)n(CCCO)c2n1 | 5 | 6.2 | 4.5 | 6.3 | 505 | 3.4 | 6000 | 382 | 4500 | 6700 | –
CNc1ncc2cc(-c3ccc(-c4cccc(C)n4)cc3Cl)c(=O)n(C)c2n1 | 1.6 | 3.7 | 3.2 | 1.3 | 3200 | 1.6 | 7600 | 775 | 4600 | 12800 | –
